Data taken from PubChem BioAssay (NCI).
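Values below derive from 48-hour exposures of cells grown in 96-well plates, with endpoints linearly interpolated between the two concentrations bracketing the appropriate inhibition level. At the TGI there is no net growth.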

Experiments:
Experiment in all cases: NCI tumour cell line growth inhibition, 48 h
[1] = system: SF-268 CNS
[2] = system: TK-10 renal
[3] = system: SK-OV-3 ovarian
[4] = system: HCT-116 colon
[5] = system: NCI-H23 lung
[6] = system: UACC-62 melanoma
[7] = system: OVCAR-4 ovarian
[8] = system: T-47D breast
[9] = system: DU-145 prostate
[10] = system: 786-0 renal
[11] = system: OVCAR-5 ovarian
[12] = system: RXF 393 renal
[13] = system: HCC-2998 colon
[14] = system: SF-539 CNS
[15] = system: SR leukemia
[16] = system: A549 NSCLC
[17] = system: K-562 leukemia
[18] = system: MDA-N
[19] = system: MDA-MB-435
[20] = system: HL-60(TB) leukemia
[21] = system: SK-MEL-28 melanoma
[22] = system: COLO 205 colon
[23] = system: MCF7 breast
[24] = system: MALME-3M melanoma
[25] = system: CCRF-CEM leukemia
[26] = system: RPMI-8226 leukemia
[27] = system: M14 melanoma
[28] = system: MDA-MB-231 breast
[29] = system: SNB-19 CNS
[30] = system: A498 renal
[31] = system: MOLT-4 leukemia
[32] = system: HOP-62 NSCLC
[33] = system: IGROV1 ovarian
[34] = system: OVCAR-8 ovarian
[35] = system: KM12 colon
[36] = system: SN12C renal
[37] = system: UACC-257 melanoma
[38] = system: SW-620 colon
[39] = system: EKVX NSCLC
[40] = system: BT-549 breast
[41] = system: SK-MEL-2 melanoma
[42] = system: HOP-92 NSCLC
[43] = system: SNB-75 CNS
[44] = system: NCI-H460 lung
[45] = system: PC-3 prostate
[46] = system: LOX IMVI melanoma
[47] = system: CAKI-1 renal
[48] = system: HS 578T breast
[49] = system: HT29 colon
[50] = system: SF-295 CNS
[51] = system: ACHN renal
[52] = system: U251 CNS
[53] = system: NCI-H226 lung
[54] = system: SK-MEL-5 melanoma
[55] = system: HCT-15 colon
[56] = system: OVCAR-3 ovarian
[57] = system: NCI-H522 lung
[58] = system: UO-31 renal
[59] = system: NCI/ADR-RES ovarian

C/C(=C1/N=C(c2ccccc2)OC1=O)c1cccs1
TGI [1]: > 100 µM | TGI [2]: > 100 µM | TGI [3]: > 100 µM | TGI [4]: > 100 µM | TGI [5]: > 100 µM | TGI [6]: > 100 µM | TGI [7]: > 100 µM | TGI [8]: > 100 µM | TGI [9]: > 100 µM | TGI [10]: > 100 µM | TGI [11]: > 100 µM | TGI [12]: > 100 µM | TGI [13]: > 100 µM | TGI [14]: > 100 µM | TGI [15]: > 100 µM | TGI [16]: > 100 µM | TGI [17]: > 100 µM | TGI [18]: > 100 µM | TGI [19]: > 100 µM | TGI [20]: > 100 µM | TGI [21]: > 100 µM | TGI [22]: > 100 µM | TGI [23]: > 100 µM | TGI [24]: > 100 µM | TGI [25]: > 100 µM | TGI [26]: > 100 µM | TGI [27]: > 100 µM | TGI [28]: > 100 µM | TGI [29]: > 100 µM | TGI [30]: > 100 µM | TGI [31]: > 100 µM | TGI [32]: > 100 µM | TGI [33]: > 100 µM | TGI [34]: > 100 µM | TGI [35]: > 100 µM | TGI [36]: > 100 µM | TGI [37]: > 100 µM | TGI [38]: > 100 µM | TGI [39]: > 100 µM | TGI [40]: > 100 µM | TGI [41]: > 100 µM | TGI [42]: > 100 µM | TGI [43]: > 100 µM | TGI [44]: > 100 µM | TGI [45]: > 100 µM | TGI [46]: > 100 µM | TGI [47]: > 100 µM | TGI [48]: > 100 µM | TGI [49]: > 100 µM | TGI [50]: > 100 µM | TGI [51]: > 100 µM | TGI [52]: > 100 µM | TGI [53]: > 100 µM | TGI [54]: > 100 µM | TGI [55]: > 100 µM | TGI [56]: > 100 µM | TGI [57]: > 100 µM

O=C(O)CCCCCNC(=O)CCC(CN(CC(=O)OCc1ccccc1)CC(=O)OCc1ccccc1)N(CC(=O)OCc1ccccc1)CC(=O)OCc1ccccc1 (stereo not given)
TGI [1]: 43.3 µM | TGI [2]: 29.9 µM | TGI [3]: 26.1 µM | TGI [4]: 31.2 µM | TGI [5]: 35 µM | TGI [6]: 30.4 µM | TGI [7]: 32.5 µM | TGI [8]: 36.9 µM | TGI [9]: 33.7 µM | TGI [10]: 34.1 µM | TGI [11]: 32.6 µM | TGI [12]: 28.9 µM | TGI [13]: 30.5 µM | TGI [14]: 37.9 µM | TGI [15]: 42 µM | TGI [16]: 33.2 µM | TGI [17]: 30.6 µM | TGI [18]: 34.8 µM | TGI [19]: 35.4 µM | TGI [20]: 32.8 µM | TGI [21]: 33.7 µM | TGI [22]: 33.7 µM | TGI [58]: 29.3 µM | TGI [23]: 36.2 µM | TGI [24]: 39.5 µM | TGI [25]: 39.7 µM | TGI [26]: 31.9 µM | TGI [27]: 32.3 µM | TGI [28]: 38.6 µM | TGI [29]: 32.9 µM | TGI [59]: 43.1 µM | TGI [30]: 32.2 µM | TGI [31]: 37.2 µM | TGI [32]: 41 µM | TGI [33]: 33.8 µM | TGI [34]: 30.1 µM | TGI [35]: 36.9 µM | TGI [36]: 36.2 µM | TGI [37]: 33.1 µM | TGI [38]: 45.3 µM | TGI [39]: 49 µM | TGI [40]: 33.1 µM | TGI [41]: 32 µM | TGI [42]: 31.1 µM | TGI [44]: 55.7 µM | TGI [45]: 32.4 µM | TGI [46]: 38.3 µM | TGI [47]: 33.3 µM | TGI [48]: 41.9 µM | TGI [49]: 33.7 µM | TGI [50]: 32.2 µM | TGI [51]: 32 µM | TGI [52]: 46.6 µM | TGI [53]: 54.2 µM | TGI [54]: 32.2 µM | TGI [55]: 34.6 µM | TGI [56]: 33.9 µM | TGI [57]: 42.1 µM

Cc1cc(C)n(CN(Cn2nc(C)cc2C)c2ccc(N(Cn3nc(C)cc3C)Cn3nc(C)cc3C)cc2)n1
TGI [1]: 69.7 µM | TGI [2]: 69.8 µM | TGI [3]: 75.2 µM | TGI [4]: 31.3 µM | TGI [5]: 58.6 µM | TGI [6]: 44.9 µM | TGI [7]: 43 µM | TGI [8]: 51.8 µM | TGI [9]: 58.3 µM | TGI [10]: 43.4 µM | TGI [11]: 51.1 µM | TGI [12]: 42.6 µM | TGI [14]: 35.3 µM | TGI [15]: > 100 µM | TGI [16]: 89.1 µM | TGI [17]: 50.3 µM | TGI [18]: 38.4 µM | TGI [19]: 35.9 µM | TGI [20]: > 100 µM | TGI [21]: 37.1 µM | TGI [22]: 31.5 µM | TGI [58]: 95.2 µM | TGI [23]: 44.4 µM | TGI [24]: 41.8 µM | TGI [25]: 63.9 µM | TGI [26]: 40 µM | TGI [27]: 36.5 µM | TGI [28]: 88.1 µM | TGI [29]: 64.5 µM | TGI [59]: 43.2 µM | TGI [30]: 63.2 µM | TGI [31]: > 100 µM | TGI [32]: 52.7 µM | TGI [33]: 50.7 µM | TGI [34]: 77.4 µM | TGI [35]: 58.2 µM | TGI [36]: 51.9 µM | TGI [37]: 40.6 µM | TGI [38]: 61.4 µM | TGI [39]: 54.1 µM | TGI [40]: 39.2 µM | TGI [41]: 50.1 µM | TGI [42]: 62.2 µM | TGI [44]: 63.8 µM | TGI [45]: 74.6 µM | TGI [47]: 62.4 µM | TGI [48]: 57 µM | TGI [49]: 45 µM | TGI [50]: 83.8 µM | TGI [51]: 38.2 µM | TGI [52]: 91.1 µM | TGI [54]: 30.9 µM | TGI [55]: 45.4 µM | TGI [56]: 49.3 µM | TGI [57]: 42.5 µM
